Assays:
Bacillus subtilis = experiment: Antibacterial activity against Bacillus subtilis ATCC 6633 after 24 hrs by agar-based microtiter plate assay; format: functional
Bacillus cereus = experiment: Antibacterial activity against Bacillus cereus ATCC 11778 after 24 hrs by agar-based microtiter plate assay; format: organism-based
Enterococcus faecalis = experiment: Antibacterial activity against Enterococcus faecalis ATCC 29212 after 24 hrs by agar-based microtiter plate assay; format: functional
Staphylococcus aureus = experiment: Antibacterial activity against Staphylococcus aureus ATCC 25923 after 24 hrs by agar-based microtiter plate assay; format: organism-based

Structure (SMILES)	LD99 (Bacillus subtilis)	LD99 (Bacillus cereus)	LD99 (Enterococcus faecalis)	LD99 (Staphylococcus aureus)
COC(=O)[C@]12Oc3c(Br)c(C)c(-c4c(C)c(Br)c(O)c5c4O[C@@]4(C(=O)OC)C(=C(O)CC[C@@H]4O)C5=O)c(O)c3C(=O)C1=C(O)CC[C@@H]2O	6.3 µg/mL	–	–	–
COC(=O)[C@]12Oc3cc(C)c(-c4c(C)cc5c(c4O)C(=O)C4=C(O)CC[C@H](O)[C@@]4(C(=O)OC)O5)c(O)c3C(=O)C1=C(O)CC[C@@H]2O [RUGULOTROSIN A]	–	3.1 µg/mL	1.6 µg/mL	200 µg/mL
COC(=O)[C@]12Oc3cc(C)c(-c4c(C)cc(O)c5c4O[C@@]4(C(=O)OC)C(=C(O)CC[C@@H]4O)C5=O)c(O)c3C(=O)C1=C(O)CC[C@@H]2O [RUGULOTROSIN B]	25 µg/mL	–	–	–

Reference: ChEMBL document CHEMBL1151191, “Rugulotrosins A and B: Two new antibacterial metabolites from an Australian isolate of a Penicillium sp” (J Nat Prod, 2004)
